From the NIST ThermoML archive (doi:10.1016/j.jct.2013.03.008)
± gives the expanded uncertainty stated by the source. Each block holds one molecule with its values, some of them ahead of it.

Experiment: cn = amount concentration of the nth substance listed, in mol/dm3
Conditions: 313 K, Ring tensiometer

surface tension liquid-gas (c1 = 0.000168): 26.4 ± 0.4 mN/m
Compound: CCCCCCCCCCCCOC(=O)C[N+](C)(C)CC[N+](C)(C)CC(=O)OCCCCCCCCCCCC.[Br-].[Br-] + O

surface tension liquid-gas (c1 = 0.000228): 27.2 ± 0.4 mN/m
Compound: CCCCCCCCCCCCOC(=O)C[N+](C)(C)CCC[N+](C)(C)CC(=O)OCCCCCCCCCCCC.[Br-].[Br-] + O

surface tension liquid-gas (c1 = 0.000412): 30.2 ± 0.5 mN/m
Compound: CCCCCCCCCCCC(=O)OCC[N+](C)(C)CCC[N+](C)(C)CCOC(=O)CCCCCCCCCCC.[Br-].[Br-] + O
